Measured values from ChEMBL document CHEMBL1133391, “Synthesis and antibacterial activity of 2alpha-functionalized 1beta-methylcarbapenems related to KR-21012” (Bioorg Med Chem Lett, 2000).
Values after ≈ are worked out from the molar mass of the structure shown.

How the values were obtained:
Escherichia coli [1] = experiment: Compound was evaluated for in vitro antibacterial activity against Escherichia coli 078 strain by agar dilution method; format: functional
Staphylococcus aureus [2] = experiment: Compound was evaluated for in vitro antibacterial activity against Staphylococcus aureus SG511 strain by agar dilution method; format: functional
Pseudomonas aeruginosa [3] = experiment: Compound was evaluated for in vitro antibacterial activity against Pseudomonas aeruginosa 1771 M strain by agar dilution method; format: functional
Klebsiella oxytoca = experiment: Compound was evaluated for in vitro antibacterial activity against Klebsiella oxytoca 1082 E strain by agar dilution method; format: functional
Staphylococcus aureus [4] = experiment: Compound was evaluated for in vitro antibacterial activity against Staphylococcus aureus 285 strain by agar dilution method; format: functional
Escherichia coli [5] = experiment: Compound was evaluated for in vitro antibacterial activity against Escherichia coli 1507 E strain by agar dilution method; format: functional
Klebsiella aerogenes = experiment: Compound was evaluated for in vitro antibacterial activity against Klebsiella aerogenes 1522 E strain by agar dilution method; format: functional
Pseudomonas aeruginosa [6] = experiment: Compound was evaluated for in vitro antibacterial activity against Pseudomonas aeruginosa 1771 strain by agar dilution method; format: functional
Streptococcus pyogenes = experiment: Compound was evaluated for in vitro antibacterial activity against Streptococcus pyogenes 77A strain by agar dilution method; format: functional
Salmonella typhimurium = experiment: Compound was evaluated for in vitro antibacterial activity against Salmonella Typhimurium by agar dilution method; format: functional, Salmonella enterica subsp. enterica serovar Typhimurium; conditions: Salmonella enterica
Enterococcus faecium = experiment: Compound was evaluated for in vitro antibacterial activity against Streptococcus faecium MD strain by agar dilution method; format: functional
Enterobacter cloacae = experiment: Compound was evaluated for in vitro antibacterial activity against Enterobacter cloacae P99 strain by agar dilution method; format: functional
[7] = Urinary recovery by disk method using Streptococcus pyogenes (0-24 h); format: ADME, organism-based; conditions: mouse, urine; read-out: UR
Mus musculus [8] = experiment: In vivo protective activity administered sc 1 hr after ip Escherichia coli 078 strain infection in mice; format: functional; conditions: read-out: PD50
[9] = Half-life at a single subcutaneous administration of 40 mg/kg in mice; format: ADME, organism-based; parameters: dose 40 mg/kg, route subcutaneous; conditions: mouse, in vivo, sc
Mus musculus [10] = experiment: Area under the curve was determined for the compound at a single subcutaneous administration of 40 mg/kg in mice; format: ADME, organism-based; parameters: dose 40 mg/kg, route subcutaneous; unit not given here; conditions: in vivo, sc
[11] = Tmax at a single subcutaneous administration of 40 mg/kg in mice; format: ADME, organism-based; parameters: dose 40 mg/kg, route subcutaneous; conditions: mouse, in vivo, sc
[12] = molecular target: T1, Dipeptidase 1 (Sus scrofa) (UniProt P22412); experiment: Compound was evaluated for DHP-1 stability by using purified porcine renal enzyme which is represented as the relative rate of hydrolysis compared to imipenem (rate=100); format: functional
T1 sequence (whole entry): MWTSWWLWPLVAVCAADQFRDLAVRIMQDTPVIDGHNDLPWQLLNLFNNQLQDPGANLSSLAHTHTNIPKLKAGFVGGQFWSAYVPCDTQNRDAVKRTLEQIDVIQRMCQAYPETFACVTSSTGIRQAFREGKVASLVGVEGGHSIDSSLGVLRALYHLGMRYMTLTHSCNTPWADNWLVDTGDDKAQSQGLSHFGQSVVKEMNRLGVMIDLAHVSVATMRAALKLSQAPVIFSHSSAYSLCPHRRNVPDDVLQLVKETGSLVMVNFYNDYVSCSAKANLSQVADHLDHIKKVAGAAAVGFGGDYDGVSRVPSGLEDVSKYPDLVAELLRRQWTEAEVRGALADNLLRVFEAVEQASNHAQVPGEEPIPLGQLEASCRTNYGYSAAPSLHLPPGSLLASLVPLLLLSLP

Mus musculus [13] = experiment: In vivo protective activity administered sc 1 hr after ip Streptococcus pyogenes 77A strain infection in mice; format: functional; conditions: read-out: PD50
Mus musculus [14] = experiment: In vivo protective activity administered sc 1 hr after ip Enterobacter cloacae P strain infection in mice; format: functional; conditions: read-out: PD50
[15] = Peak concentration at a single subcutaneous administration of 40 mg/kg in mice; format: ADME, organism-based; parameters: dose 40 mg/kg, route subcutaneous; conditions: mouse, in vivo, sc
[16] = molecular target: T1, Dipeptidase 1 (Sus scrofa); experiment: Compound was evaluated for DHP-1 stability by using purified porcine renal enzyme; format: functional

MIC (Escherichia coli [1])	MIC (Staphylococcus aureus [2])	MIC (Pseudomonas aeruginosa [3])	MIC (Klebsiella oxytoca)	MIC (Staphylococcus aureus [4])	MIC (Escherichia coli [5])	MIC (Klebsiella aerogenes)	MIC (Pseudomonas aeruginosa [6])	MIC (Streptococcus pyogenes)	MIC (Salmonella typhimurium)	MIC (Enterococcus faecium)	MIC (Enterobacter cloacae)	Structure (SMILES)	ED50 (Mus musculus [8])	half-life [9]	Tmax [11]	ED50 (Mus musculus [13])	Cmax [15]	further results
0.391 µg/mL	0.391 µg/mL	6.25 µg/mL	12.5 µg/mL	0.391 µg/mL	0.391 µg/mL	0.781 µg/mL	100 µg/mL	0.049 µg/mL	0.781 µg/mL	12.5 µg/mL	0.781 µg/mL	CC[C@H](O)C1=C(C(=O)[O-])N2C(=O)[C@H]([C@@H](C)O)C2[C@H]1C.[Na+] (stereo not given in full)						
0.195 µg/mL	0.098 µg/mL	1.56 µg/mL	3.12 µg/mL	0.098 µg/mL	0.195 µg/mL	3.12 µg/mL	100 µg/mL	0.013 µg/mL	0.195 µg/mL	1.56 µg/mL	3.12 µg/mL	CCC(C)[C@@H](O)C1=C(C(=O)[O-])N2C(=O)[C@H]([C@@H](C)O)C2[C@H]1C.[Na+] (stereo not given in full)						
1.56 µg/mL	0.781 µg/mL	1.56 µg/mL	25 µg/mL	0.781 µg/mL	0.391 µg/mL	12.5 µg/mL	100 µg/mL	0.025 µg/mL	0.781 µg/mL	12.5 µg/mL	12.5 µg/mL	CC(C)[C@H](O)C1=C(C(=O)[O-])N2C(=O)[C@H]([C@@H](C)O)C2[C@H]1C.[Na+] (stereo not given in full)						

More lines, now with the values behind:

Structure (SMILES)	MIC (Escherichia coli [1])	MIC (Staphylococcus aureus [2])	MIC (Pseudomonas aeruginosa [3])	MIC (Klebsiella oxytoca)	MIC (Staphylococcus aureus [4])	MIC (Escherichia coli [5])	MIC (Klebsiella aerogenes)	MIC (Pseudomonas aeruginosa [6])	MIC (Streptococcus pyogenes)	MIC (Salmonella typhimurium)	MIC (Enterococcus faecium)	MIC (Enterobacter cloacae)	ED50 (Mus musculus [8])	half-life [9]	Tmax [11]	ED50 (Mus musculus [13])	Cmax [15]	further results
C[C@H]1C([C@H](O)C(C)(C)C)=C(C(=O)[O-])N2C(=O)[C@H]([C@@H](C)O)C12.[Na+] (stereo not given in full)	0.781 µg/mL	0.391 µg/mL	6.25 µg/mL	12.5 µg/mL	0.391 µg/mL	0.781 µg/mL	6.25 µg/mL	100 µg/mL	0.049 µg/mL	1.56 µg/mL	12.5 µg/mL	6.25 µg/mL						
C[C@H]1C([C@H](O)C2CC2)=C(C(=O)[O-])N2C(=O)[C@H]([C@@H](C)O)C12.[Na+] (stereo not given in full)	0.098 µg/mL	0.049 µg/mL	1.56 µg/mL	0.781 µg/mL	0.049 µg/mL	0.049 µg/mL	0.195 µg/mL	100 µg/mL	0.007 µg/mL	0.098 µg/mL	0.781 µg/mL	0.781 µg/mL	23.1 mg/kg	18.6 min	10.2 min	7.94 mg/kg	18100 ng/mL	dose excreted [7]: 14.3%; AUC (Mus musculus [10]): 6.86; Activity [12]: 38; ED50 (Mus musculus [14]): 12.6 mg/kg
CC[C@@H](O)C1=C(C(=O)[O-])N2C(=O)[C@H]([C@@H](C)O)C2[C@H]1C.[Na+] (stereo not given in full)	0.098 µg/mL	0.098 µg/mL	1.56 µg/mL	3.12 µg/mL	0.098 µg/mL	0.098 µg/mL	0.391 µg/mL	100 µg/mL	0.625 µg/mL	0.391 µg/mL	3.12 µg/mL	0.781 µg/mL						
C[C@H]1C([C@@H](O)C2CC2)=C(C(=O)[O-])N2C(=O)[C@H]([C@@H](C)O)C12.[Na+] (stereo not given in full)	1.56 µg/mL	0.195 µg/mL	3.12 µg/mL	6.25 µg/mL	0.781 µg/mL	0.195 µg/mL	0.781 µg/mL	100 µg/mL	0.098 µg/mL	1.56 µg/mL	3.12 µg/mL	0.781 µg/mL						
C[C@@H](O)[C@H]1C(=O)N2C(C(=O)O)=C(S[C@@H]3CN[C@H](C(=O)N(C)C)C3)[C@H](C)[C@H]12 [MEROPENEM]	0.013 µg/mL (≈ 0.0339 µM)	0.013 µg/mL (≈ 0.0339 µM)	0.049 µg/mL (≈ 0.128 µM)	0.049 µg/mL (≈ 0.128 µM)	0.195 µg/mL (≈ 0.509 µM)	0.025 µg/mL (≈ 0.0652 µM)	0.049 µg/mL (≈ 0.128 µM)	0.361 µg/mL (≈ 0.941 µM)	0.013 µg/mL (≈ 0.0339 µM)	0.049 µg/mL (≈ 0.128 µM)	6.25 µg/mL (≈ 16.3 µM)	0.025 µg/mL (≈ 0.0652 µM)	1.24 mg/kg	14.4 min	12.6 min	4.6 mg/kg	7600 ng/mL	Activity [16]: 32
CC(C)[C@@H](O)C1=C(C(=O)[O-])N2C(=O)[C@H]([C@@H](C)O)C2[C@H]1C.[Na+] (stereo not given in full)	0.049 µg/mL	0.098 µg/mL	0.781 µg/mL	1.56 µg/mL	0.098 µg/mL	0.049 µg/mL	0.391 µg/mL	100 µg/mL	0.007 µg/mL	0.098 µg/mL	1.56 µg/mL	1.56 µg/mL	1.3 mg/kg	41.4 min	15 min	1.19 mg/kg	25000 ng/mL	Activity [16]: 21; dose excreted [7]: 25.1%; AUC (Mus musculus [10]): 20.9; ED50 (Mus musculus [14]): 1.37 mg/kg
CO[C@H]1CCC[C@H]2C1=C(C(=O)[O-])N1C(=O)[C@H]([C@@H](C)O)[C@@H]21.[Na+] [SANFETRINEM SODIUM]	0.049 µg/mL	0.098 µg/mL	0.391 µg/mL	1.56 µg/mL	0.049 µg/mL	0.195 µg/mL	0.391 µg/mL	25 µg/mL	0.007 µg/mL	0.195 µg/mL	1.56 µg/mL	3.12 µg/mL	3.13 mg/kg	33 min	22.2 min	1.46 mg/kg	28800 ng/mL	Activity [16]: 20; dose excreted [7]: 20.5%; AUC (Mus musculus [10]): 27.39; ED50 (Mus musculus [14]): 1.18 mg/kg
C[C@H]1C([C@H](O)C2CCCC2)=C(C(=O)[O-])N2C(=O)[C@H]([C@@H](C)O)C12.[Na+] (stereo not given in full)	0.195 µg/mL	0.098 µg/mL	0.781 µg/mL	3.12 µg/mL	0.098 µg/mL	0.195 µg/mL	1.56 µg/mL	100 µg/mL	0.013 µg/mL	0.195 µg/mL	0.781 µg/mL	6.25 µg/mL						
